Assay results as given in patent US9902696B2, “1,4-substituted piperidine derivatives” (Cephalon, Inc., priority 2015, dated 2018).
Structures can show the parent of a compound that is named as a salt. Where two headings read alike, the source gives them in different places.

Target: T1, recombinant human baculovirus-expressed GST-tagged FASN (Homo sapiens, UniProt P49327)
T1 construct: GST
Assay: FASN enzyme activity assay, fluorescence-based detection of CoA with CPM
Type: biochemical
Details: 5 nM FASN, 150 μM NADPH, 10 μM acetyl-CoA, 25 μM malonyl-CoA, 90 minutes incubation
Excerpt: FASN Enzyme activity may be determined by detecting coenzyme A (CoA), a product of FASN-catalyzed synthesis of palmitate from acetyl-CoA and malonyl-CoA with NADPH as a cofactor. The assay is fluorescence-based and measures the interaction of free CoA with 7-diethylamino-3-(4′-malemimidylphenyl)-4-methylcoumarin (CPM; Life Technologies, CA) as described in Chung et al (2008). The coumarin derivative CPM contains a thiol-reactive maleimide that becomes fluorescent upon interaction with the sulfhydryl group of CoA.
For the example compounds described herein, the reaction was performed in 384-well low volume non-binding plates (Corning, N.Y.) using recombinant human baculovirus-expressed GST-tagged FASN. The 20-μL assay mixture contained 50 mM HEPES (pH 7.5), 5 nM FASN, 150 μM NADPH (Sigma, St. Louis, Mo.), 10 μM acetyl-CoA (Sigma), 25 μM malonyl-CoA (Sigma) and test compound [diluted in dimethyl sulfoxide (DMSO); 0.5% DMSO final in assay after 100 nL addition]. See, Chung et al.; “A fluorescence-based thiol quantification assay for ultra-high-throughput screening for inhibitors of coenzyme A production,” Assay Drug Dev Tech 2008; 6:361-374.
The reaction was initiated by adding malonyl-CoA, followed by incubation for 90 minutes at […]. A stock solution of the CPM reagent was prepared in DMSO at […] and stored at […]. To detect CoA produced in the FASN reaction, the CPM stock was diluted to […] in 70% ethanol and added at 4 μL/well to the assay plate. The reaction mixture was then incubated for 30 minutes. Fluorescence was measured using the EnVision™ 2102 multi-label plate reader (PerkinElmer, Waltham, Mass.) utilizing a general dual mirror, a 390 nm excitation filter and a 530 nm emission filter. Data analysis was performed using ActivityBase (IDBS, Guilford, UK). IC50 values were calculated by plotting the percent inhibition versus log 10 of the concentration of the compound, and fitting to the nonlinear regression sigmoidal dose-response (variable slope) equation in XLFit (IDBS).

[1] = read-out: IC50 data for Compounds of Formulae I-V/V(a): Activity
[2] = read-out: IC50 data for Additional Compounds of Formulae I-V(a): Activity

T1 sequence (P49327 whole entry): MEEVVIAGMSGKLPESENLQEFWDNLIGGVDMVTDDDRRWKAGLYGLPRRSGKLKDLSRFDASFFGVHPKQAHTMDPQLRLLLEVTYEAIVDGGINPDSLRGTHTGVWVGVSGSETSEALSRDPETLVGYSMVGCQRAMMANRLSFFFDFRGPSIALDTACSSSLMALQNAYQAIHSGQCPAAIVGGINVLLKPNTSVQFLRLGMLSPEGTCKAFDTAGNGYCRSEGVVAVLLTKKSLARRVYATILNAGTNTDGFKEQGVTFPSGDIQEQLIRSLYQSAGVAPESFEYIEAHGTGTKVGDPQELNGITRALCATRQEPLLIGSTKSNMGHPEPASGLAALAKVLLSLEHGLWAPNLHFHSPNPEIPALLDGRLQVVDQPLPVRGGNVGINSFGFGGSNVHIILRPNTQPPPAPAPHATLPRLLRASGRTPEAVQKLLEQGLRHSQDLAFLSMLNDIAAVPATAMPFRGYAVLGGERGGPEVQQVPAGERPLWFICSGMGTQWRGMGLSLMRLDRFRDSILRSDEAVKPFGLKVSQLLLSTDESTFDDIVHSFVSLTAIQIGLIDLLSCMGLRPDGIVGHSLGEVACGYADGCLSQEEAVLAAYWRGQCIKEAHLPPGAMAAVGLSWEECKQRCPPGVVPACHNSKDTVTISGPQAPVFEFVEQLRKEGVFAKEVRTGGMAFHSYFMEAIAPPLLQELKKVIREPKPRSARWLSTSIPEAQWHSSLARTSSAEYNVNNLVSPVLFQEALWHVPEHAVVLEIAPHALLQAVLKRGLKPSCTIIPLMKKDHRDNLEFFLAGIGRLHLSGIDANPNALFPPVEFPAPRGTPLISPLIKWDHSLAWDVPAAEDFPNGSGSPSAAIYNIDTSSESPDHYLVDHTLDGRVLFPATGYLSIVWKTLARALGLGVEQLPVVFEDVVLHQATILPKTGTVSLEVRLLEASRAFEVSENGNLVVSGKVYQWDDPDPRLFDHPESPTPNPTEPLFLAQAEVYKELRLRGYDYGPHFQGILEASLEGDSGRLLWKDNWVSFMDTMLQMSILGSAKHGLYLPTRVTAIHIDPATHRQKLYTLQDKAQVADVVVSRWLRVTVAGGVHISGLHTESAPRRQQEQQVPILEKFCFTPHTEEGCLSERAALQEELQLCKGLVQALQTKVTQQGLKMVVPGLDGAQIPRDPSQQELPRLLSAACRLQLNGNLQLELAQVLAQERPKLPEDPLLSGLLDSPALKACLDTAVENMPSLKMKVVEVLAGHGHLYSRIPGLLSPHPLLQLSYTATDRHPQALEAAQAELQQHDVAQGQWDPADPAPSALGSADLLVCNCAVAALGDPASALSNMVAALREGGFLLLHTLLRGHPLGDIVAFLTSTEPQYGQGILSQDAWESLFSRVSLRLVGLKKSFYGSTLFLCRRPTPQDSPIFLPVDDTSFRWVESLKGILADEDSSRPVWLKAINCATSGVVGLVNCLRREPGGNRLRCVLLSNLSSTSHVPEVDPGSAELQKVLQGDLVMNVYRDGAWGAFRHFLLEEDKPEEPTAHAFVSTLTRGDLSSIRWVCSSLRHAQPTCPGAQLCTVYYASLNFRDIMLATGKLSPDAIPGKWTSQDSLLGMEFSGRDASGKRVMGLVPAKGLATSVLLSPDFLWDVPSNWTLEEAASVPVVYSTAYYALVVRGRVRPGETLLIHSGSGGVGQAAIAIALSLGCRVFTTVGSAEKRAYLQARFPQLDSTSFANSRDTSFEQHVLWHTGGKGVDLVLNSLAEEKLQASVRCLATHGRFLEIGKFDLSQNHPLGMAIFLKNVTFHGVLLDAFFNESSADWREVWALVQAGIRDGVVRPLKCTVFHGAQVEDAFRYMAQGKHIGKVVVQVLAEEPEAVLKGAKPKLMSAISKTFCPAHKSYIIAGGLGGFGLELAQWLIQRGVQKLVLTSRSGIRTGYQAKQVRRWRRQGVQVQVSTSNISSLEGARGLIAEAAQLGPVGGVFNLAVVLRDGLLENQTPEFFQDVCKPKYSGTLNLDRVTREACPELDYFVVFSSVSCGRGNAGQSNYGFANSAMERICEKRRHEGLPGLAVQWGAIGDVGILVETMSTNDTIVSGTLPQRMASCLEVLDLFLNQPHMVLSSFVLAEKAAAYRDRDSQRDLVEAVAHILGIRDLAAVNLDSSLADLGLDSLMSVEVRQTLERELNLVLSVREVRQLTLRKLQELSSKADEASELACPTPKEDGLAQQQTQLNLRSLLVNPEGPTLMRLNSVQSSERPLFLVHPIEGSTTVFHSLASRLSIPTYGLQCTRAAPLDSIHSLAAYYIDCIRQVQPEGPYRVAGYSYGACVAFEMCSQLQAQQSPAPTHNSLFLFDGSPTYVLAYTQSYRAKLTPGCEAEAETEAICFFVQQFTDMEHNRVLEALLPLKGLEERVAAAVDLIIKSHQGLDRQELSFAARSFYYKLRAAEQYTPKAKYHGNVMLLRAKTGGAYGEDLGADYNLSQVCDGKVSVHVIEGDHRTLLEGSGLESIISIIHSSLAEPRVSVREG

Row | Structure (SMILES) | IC50 [1] | IC50 [2]
1 | CC(C)C(=O)N1CCC(Oc2ccc(-c3cnc4ccccc4c3)cc2Cl)CC1 [Example 192, 1-[4-(2-Chloro-4-quinolin-3-yl-phenoxy)-piperidin-1-yl]-2-methyl-propan-1-one] | 1000 to 10000 nM | 
2 | O=C(C1CCOC1)N1CCC(Oc2ccc(-c3cnc4ccccc4c3)cc2)CC1 (centres unmarked) [Example 107, [4-(4-Quinolin-3-yl-phenoxyl)-piperidin-1-yl]-(tetrahydrofuran-3-yl)-methanone, 2HCl] | 1000 to 10000 nM | 
3 | CCC(=O)N1CCC(Oc2ccc(-c3cncc(Nc4ccccc4)c3)cc2)CC1 [Example 401, 1-{4-[4-(5-Phenylaminopyridin-3-yl)-phenoxy]-piperidin-1-yl}-propan-1-one, TFA salt] | 1000 to 10000 nM | 
4 | O=C([C@H]1CCCO1)N1CCC(Oc2ccc(-c3ccn4cnnc4c3)cc2)CC1 [Example 307, (R)-Tetrahydrofuran-2-yl-[4-(4-[1,2,4]triazolo[4,3-a]pyridin-7-yl-phenoxy)-piperidin-1-yl]-methanone] | 100 to 999 nM | 
5 | CCOc1c(-c2ccc(OC3CCN(C(=O)CC)CC3)cc2)ccc2cccnc12 [Example 167, 1-{4-[4-(8-Ethoxyquinolin-7-yl)-phenoxy]-piperidin-1-yl}-propan-1-one, HCl] | 1 to 99 nM | 
6 | O=C(N1CCC(Oc2ccc(-c3ccc4cccnc4c3Cl)cc2)CC1)N1CCCO1 [Example 77, {4-[4-(8-Chloroquinolin-7-yl)-phenoxy]-piperidin-1-yl}-isoxazolidin-2-yl-methanone] | 1 to 99 nM | 
7 | O=C(C1CCC1)N1CCC(Oc2ccc(-c3ccc(Oc4ccccc4)nc3)cc2)CC1 [Example 391, Cyclobutyl-{4-[4-(6-phenoxy-pyridin-3-yl)-phenoxy]-piperidin-1-yl}-methanone] | 1000 to 10000 nM | 
8 | Cc1cc2nccn2cc1-c1ccc(OC2CCN(C(=O)[C@H]3CCCO3)CC2)cc1 [Example 292, {4-[4-(7-Methylimidazo[1,2-a]pyridin-6-yl)-phenoxy]-piperidin-1-yl}-(R)-tetrahydrofuran-2-yl-methanone] | 100 to 999 nM | 
9 | O=C(C1CCC1)N1CCC(Oc2ccc(-c3ccc4ccccc4n3)cc2)CC1 [Example 41, Cyclobutyl-[4-(4-quinolin-2-yl-phenoxy)-piperidin-1-yl]-methanone] | 100 to 999 nM | 
10 | CC(C)C(=O)N1CCC(Oc2cc(F)c(-c3cnc4ccccc4c3)cc2F)CC1 [Example 216, 1-[4-(2,5-Difluoro-4-quinolin-3-yl-phenoxy)-piperidin-1-yl]-2-methyl-propan-1-one] | 1000 to 10000 nM | 
11 | Cc1c(-c2ccc(O[C@@H]3CCN4C(=O)CC[C@H]4C3)cc2)ccc2cccnc12 (racemic) [Example 356, (±)-(7R,8aS)-7-(4-(8-Methylquinolin-7-yl)phenoxy)hexahydroindolizin-3(2H)-one] | 1000 to 10000 nM | 
12 | O=C(C1CC1)N1CCC(Oc2ccc(-c3cnc4[nH]ccc4c3)cc2)CC1 [Example 33, Cyclopropyl-{4-[4-(1H-pyrrolo[2,3-b]pyridin-5-yl)-phenoxy]-piperidin-1-yl}-methanone] | 100 to 999 nM | 
13 | O=C1CCCN1C(=O)N1CCC(Oc2ccc(-c3cnc4ccccc4c3)cc2)CC1 [Example 243, 1-[4-(4-Quinolin-3-yl-phenoxy)-piperidine-1-carbonyl]-pyrrolidin-2-one] | 1000 to 10000 nM | 
14 | Cc1c(-c2ccc(OC3CCN(C(=O)C4CC4)CC3)cc2)ccc2cccnc12 [Example 37, Cyclopropyl-{4-[4-(8-methylquinolin-7-yl)-phenoxy]-piperidin-1-yl}-methanone] | 1 to 99 nM | 
15 | CCC(=O)N1CCC(Oc2cc(F)c(-c3cnc4ccccc4c3)cc2F)CC1 [Example 215, 1-[4-(2,5-Difluoro-4-quinolin-3-yl-phenoxy)-piperidin-1-yl]-propan-1-one] | 100 to 999 nM | 
16 | COc1cc(-c2ccc(OC3CCN(C(=O)C4CC4)CC3)cc2)cnc1OC [Example 499, Cyclopropyl-{4-[4-(5,6-dimethoxypyridin-3-yl)-phenoxy]-piperidin-1-yl}-methanone] | 1000 to 10000 nM | 
17 | CCC(=O)N1CCC(Oc2ccc(-c3ccc4cccnc4c3C)cc2F)CC1 [Example 225, 1-{4-[2-Fluoro-4-(8-methylquinolin-7-yl)-phenoxy]-piperidin-1-yl}-propan-1-one] | 1 to 99 nM | 
18 | CC(C)C(=O)N1CCC(Sc2ccc(-c3ccc4cccnc4c3)cc2)CC1 [Example 520, HCl] | 1 to 99 nM | 

Row | Structure (SMILES) | IC50 [1] | IC50 [2]
19 | NC(=O)C1(C(=O)N2CCC(Oc3ccc(-c4ccc5cncn5c4)cc3)CC2)CC1 [Example 301, 1-[4-(4-Imidazo[1,5-a]pyridin-6-yl-phenoxy)-piperidine-1-carbonyl]-cyclopropanecarboxylic acid amide] | 1000 to 10000 nM | 
20 | CCONC(=O)N1CCC(Oc2ccc(-c3ccc4nccn4c3Cl)cc2)CC1 [Example 573, 4-[4-(5-Chloroimidazo[1,2-a]pyridin-6-yl)phenoxy]-N-ethoxy-piperidine-1-carboxamide] |  | 1000 to 10000 nM
21 | Cc1nccc2cc(-c3ccc(OC4CCN(C(=O)[C@H]5CCCO5)CC4)cc3)ccc12 [Example 431, {4-[4-(1-Methylisoquinolin-6-yl)-phenoxy]-piperidin-1-yl}-(R)-tetrahydro-furan-2-yl-methanone] | 1 to 99 nM | 
22 | O=C(C1CC1)N1CCC(Oc2ccc(-c3ccc4scnc4c3)cc2)CC1 [Example 268, [4-(4-Benzothiazol-5-yl-phenoxy)-piperidin-1-yl]-cyclopropylmethanone, TFA salt] | 1000 to 10000 nM | 
23 | CN1CCN(c2c(-c3ccc(OC4CCN(C(=O)[C@H]5CCCO5)CC4)cc3)ccc3cccnc23)CC1 [Example 323, [4-[4-[8-(4-Methylpiperazin-1-yl)-7-quinolyl]phenoxy]-1-piperidyl]-[(2R)-tetrahydrofuran-2-yl]methanone] | 1000 to 10000 nM | 
24 | O=C(C1CC1)N1CCC(Oc2ccc(-c3ccc(OCc4ccccc4)cc3F)cc2)CC1 [Example 505, [4-(4′-Benzyloxy-2′-fluorobiphenyl-4-yloxy)-piperidin-1-yl]-cyclopropyl-methanone] | 1000 to 10000 nM | 
25 | CCC(=O)N1CCC(Oc2ccc(-c3ccc4cnc(C)cc4c3)cc2)CC1 [Example 430, 1-{4-[4-(3-Methylisoquinolin-6-yl)-phenoxy]-piperidin-1-yl}-propan-1-one] | 1000 to 10000 nM | 
26 | Cc1c(-c2ccc(OC3CCN(C(=O)OCC(C)C)CC3)cc2)ccc2nccn12 [Example 602, Isobutyl 4-[4-(5-methylimidazo[1,2-a]pyridin-6-yl)phenoxy]piperidine-1-carboxylate] |  | 1000 to 10000 nM
27 | CC(C)C(=O)N1CCC(S(=O)(=O)c2ccc(-c3ccc4occc4c3)cc2)CC1 [Example 515, 1-[4-(4-Benzofuran-5-yl-benzenesulfonyl)-piperidin-1-yl]-2-methyl-propan-1-one] | 1000 to 10000 nM | 
28 | CCC(=O)N1CCC(Oc2ccc(-c3ccc4cccnc4c3NCCOC)cc2)CC1 [Example 328, 1-(4-{4-[8-(2-Methoxyethylamino)-quinolin-7-yl]-phenoxy}-piperidin-1-yl)-propan-1-one] | 100 to 999 nM | 
29 | COc1cc(-c2cnc3ccccc3c2)ccc1OC1CCN(C(=O)C(C)C)CC1 [Example 197, 1-[4-(2-Methoxy-4-quinolin-3-yl-phenoxy)-piperidin-1-yl]-2-methyl-propan-1-one] | 1000 to 10000 nM | 
30 | CCC(=O)N1CCC(Oc2ccc(-c3cnc4ccccc4n3)cc2)CC1 [Example 66, 1-[4-(4-Quinoxalin-2-yl-phenoxy)-piperidin-1-yl]-propan-1-one] | 100 to 999 nM | 
31 | Cc1c(-c2ccc(OC3CCN(C(=O)NCC(C)C)CC3)cc2)ccn2ccnc12 [Example 632, N-Isobutyl-4-[4-(8-methylimidazo[1,2-a]pyridin-7-yl)phenoxy]piperidine-1-carboxamide] |  | 1 to 99 nM
32 | Cc1ccc2ncccc2c1-c1ccc(OC2CCN(C(=O)C3CC3)CC2)cc1 [Example 351, Cyclopropyl(4-(4-(6-methylquinolin-5-yl)phenoxy)piperidin-1-yl)methanone, HCl] | 100 to 999 nM | 
33 | Cc1c(-c2ccc(OC3CCN(C(=O)NC4CCOCC4)CC3)cc2)ccc2cccnc12 [Example 549, 4-[4-(8-Methyl-7-quinolyl)phenoxy]-N-tetrahydropyran-4-yl-piperidine-1-carboxamide, HCl] |  | 1000 to 10000 nM
34 | COc1cccc2ncc(-c3ccc(OC4CCN(C(=O)C5CC5)CC4)cc3)cc12 [Example 464, Cyclopropyl-{4-[4-(5-methoxyquinolin-3-yl)-phenoxy]-piperidin-1-yl}-methanone] | 1000 to 10000 nM | 
35 | Cc1c(-c2ccc(OC3CCN(C(=O)COC(C)C)CC3)cc2)ccc2cccnc12 [Example 624, 2-Isopropoxy-1-[4-[4-(8-methyl-7-quinolyl)phenoxy]-1-piperidyl]ethanone, HCl] |  | 1000 to 10000 nM
